Source: PubChem BioAssay AID248 (DTP/NCI, 2004)
“And” between values parts separate entries of the source, which are not always exact repeats. Equal entries are not always repeated. Inconclusive results and toxic doses are left out. Rule as the data show it: active = T/C of 150% or more; inactive = T/C below 125%.

Test system: L1210 leukemia ip in BDF1 mice, survival T/C
Experiment: NCI In Vivo Anticancer Drug Screen. Data for tumor model L1210 Leukemia (intraperitoneal) in B6D2F1 (BDF1) mice
Details: higher = longer survival
Procedure, shortened: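 Antitumor effect is assessed in tumor-bearing animals. Survival in the compound arm is compared with a vehicle-dosed control arm and expressed as their quotient.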

[1] = endpoint: mean survival time, dose: 100.0 mg/kg/injection, schedule: Q01DX009 (ip), vehicle: Klucel (hydroxypropylcellulose) (HPC)
[2] = endpoint: mean survival time, dose: 200.0 mg/kg/injection, schedule: Q01DX009 (ip), vehicle: Klucel (hydroxypropylcellulose) (HPC)
[3] = endpoint: mean survival time, dose: 100.0 mg/kg/injection, schedule: Q01DX001 (ip), vehicle: saline
[4] = endpoint: mean survival time, dose: 200.0 mg/kg/injection, schedule: Q01DX001 (ip), vehicle: saline
[5] = endpoint: mean survival time, dose: 400.0 mg/kg/injection, schedule: Q01DX001 (ip), vehicle: saline
[6] = endpoint: mean survival time, dose: 100.0 mg/kg/injection, schedule: Q04DX003 (ip), vehicle: saline with Tween-80
[7] = endpoint: mean survival time, dose: 200.0 mg/kg/injection, schedule: Q04DX003 (ip), vehicle: saline with Tween-80
[8] = endpoint: mean survival time, dose: 100.0 mg/kg/injection, schedule: Q01DX009 (ip), vehicle: saline with Tween-80
[9] = endpoint: mean survival time, dose: 200.0 mg/kg/injection, schedule: Q01DX009 (ip), vehicle: saline with Tween-80
[10] = endpoint: mean survival time, dose: 400.0 mg/kg/injection, schedule: Q01DX009 (ip), vehicle: saline with Tween-80
[11] = endpoint: mean survival time, dose: 50.0 mg/kg/injection, schedule: Q01DX009 (ip), vehicle: Klucel (hydroxypropylcellulose) (HPC)

Measured: T/C

S=C(NCc1ccco1)Nc1ccccc1Cl
inactive: [1] 100 % of control | [2] 93 % of control

O=[N+]([O-])C12CC3CC(CC(C3)C1)C2
inactive: endpoint: mean survival time, dose: 100.0 mg/kg/injection, schedule: Q01DX001 (sc), vehicle: olive oil, sesame oil, peanut oil 114 % of control | endpoint: mean survival time, dose: 200.0 mg/kg/injection, schedule: Q01DX001 (sc), vehicle: olive oil, sesame oil, peanut oil 108 % of control | endpoint: mean survival time, dose: 400.0 mg/kg/injection, schedule: Q01DX001 (sc), vehicle: olive oil, sesame oil, peanut oil 93 % of control

COc1ccc(N(N=Nc2ccccc2)C(C)=O)cc1
inactive: endpoint: mean survival time, dose: 40.0 mg/kg/injection, schedule: Q01DX009 (ip), vehicle: Klucel (hydroxypropylcellulose) (HPC) 96 % of control | endpoint: mean survival time, dose: 75.0 mg/kg/injection, schedule: Q01DX001 (ip), vehicle: Klucel (hydroxypropylcellulose) (HPC) 96 % of control | endpoint: mean survival time, dose: 75.0 mg/kg/injection, schedule: Q01DX009 (ip), vehicle: Klucel (hydroxypropylcellulose) (HPC) 101 % of control | endpoint: mean survival time, dose: 150.0 mg/kg/injection, schedule: Q01DX001 (ip), vehicle: Klucel (hydroxypropylcellulose) (HPC) 90 % of control | endpoint: mean survival time, dose: 150.0 mg/kg/injection, schedule: Q01DX009 (ip), vehicle: Klucel (hydroxypropylcellulose) (HPC) 112 % of control | endpoint: mean survival time, dose: 300.0 mg/kg/injection, schedule: Q01DX001 (ip), vehicle: Klucel (hydroxypropylcellulose) (HPC) 86 % of control

Brc1c(Br)c(Br)c(Br)c(Br)c1Br
inactive: [3] 93 % of control | [4] 92 % of control | [5] 98 % of control

c1ccc([Si](c2ccccc2)(c2ccccc2)c2ccccc2)cc1
inactive: [6] 90 % of control | [7] 90 % of control | endpoint: mean survival time, dose: 400.0 mg/kg/injection, schedule: Q04DX003 (ip), vehicle: saline with Tween-80 88 % of control

CC(CN(C)C)CN1c2ccccc2Sc2ccccc21 (centres undefined)
inactive: endpoint: mean survival time, dose: 3.12 mg/kg/injection, schedule: Q04DX003 (ip), vehicle: saline with Tween-80 105 % of control | endpoint: mean survival time, dose: 3.12 mg/kg/injection, schedule: Q04DX003 (ip), vehicle: saline 96 % of control | endpoint: mean survival time, dose: 6.12 mg/kg/injection, schedule: Q04DX003 (ip), vehicle: saline with Tween-80 101 % of control | endpoint: mean survival time, dose: 6.25 mg/kg/injection, schedule: Q04DX003 (ip), vehicle: saline 100 % of control and 104 % of control | endpoint: mean survival time, dose: 12.5 mg/kg/injection, schedule: Q04DX003 (ip), vehicle: saline with Tween-80 105 % of control | endpoint: mean survival time, dose: 12.5 mg/kg/injection, schedule: Q04DX003 (ip), vehicle: saline 102 % of control and 113 % of control | endpoint: mean survival time, dose: 25.0 mg/kg/injection, schedule: Q04DX003 (ip), vehicle: saline with Tween-80 103 % of control | endpoint: mean survival time, dose: 25.0 mg/kg/injection, schedule: Q04DX003 (ip), vehicle: saline 102 % of control | endpoint: mean survival time, dose: 50.0 mg/kg/injection, schedule: Q04DX003 (ip), vehicle: saline with Tween-80 120 % of control

OC(Cc1cnc2ccccc2n1)(C(F)(F)F)C(F)(F)F
inactive: [8] 98 % of control | [9] 94 % of control | [10] 95 % of control

O=[N+]([O-])c1ccccc1OCCBr
inactive: endpoint: mean survival time, dose: 100.0 mg/kg/injection, schedule: Q04DX003 (ip), vehicle: Klucel (hydroxypropylcellulose) (HPC) 100 % of control | endpoint: mean survival time, dose: 200.0 mg/kg/injection, schedule: Q04DX003 (ip), vehicle: Klucel (hydroxypropylcellulose) (HPC) 94 % of control

NNc1ccc2cccc(O)c2n1
inactive: endpoint: mean survival time, dose: 100.0 mg/kg/injection, schedule: Q01DX001 (ip), vehicle: carboxymethylcellulose (CMC) 90 % of control | endpoint: mean survival time, dose: 200.0 mg/kg/injection, schedule: Q01DX001 (ip), vehicle: carboxymethylcellulose (CMC) 93 % of control

CC(=O)Oc1c(C(C)(C)C)cc(C)cc1C(C)(C)C
inactive: [11] 100 % of control | [1] 100 % of control | [2] 103 % of control

COc1cc2c(cc1OC)C(C=C(c1ccccc1)c1ccccc1)N(C)CC2 (centres undefined)
inactive: endpoint: mean survival time, dose: 12.5 mg/kg/injection, schedule: Q01DX009 (ip), vehicle: Klucel (hydroxypropylcellulose) (HPC) 94 % of control | endpoint: mean survival time, dose: 12.5 mg/kg/injection, schedule: Q04DX003 (ip), vehicle: Klucel (hydroxypropylcellulose) (HPC) 95 % of control | endpoint: mean survival time, dose: 25.0 mg/kg/injection, schedule: Q01DX009 (ip), vehicle: Klucel (hydroxypropylcellulose) (HPC) 103 % of control | endpoint: mean survival time, dose: 25.0 mg/kg/injection, schedule: Q04DX003 (ip), vehicle: Klucel (hydroxypropylcellulose) (HPC) 101 % of control | [11] 96 % of control | endpoint: mean survival time, dose: 50.0 mg/kg/injection, schedule: Q04DX003 (ip), vehicle: Klucel (hydroxypropylcellulose) (HPC) 96 % of control

CCNC(=O)NCc1cc(C)ccc1C
inactive: endpoint: mean survival time, dose: 100.0 mg/kg/injection, schedule: Q04DX002 (ip), vehicle: Klucel (hydroxypropylcellulose) (HPC) 111 % of control | endpoint: mean survival time, dose: 200.0 mg/kg/injection, schedule: Q04DX002 (ip), vehicle: Klucel (hydroxypropylcellulose) (HPC) 108 % of control | endpoint: mean survival time, dose: 400.0 mg/kg/injection, schedule: Q04DX002 (ip), vehicle: Klucel (hydroxypropylcellulose) (HPC) 108 % of control

CC(=O)NC(C)(NC(=O)CCl)C(=O)O (centres undefined)
inactive: endpoint: mean survival time, dose: 100.0 mg/kg/injection, schedule: Q01DX001 (ip), vehicle: saline with Tween-80 98 % of control | [8] 94 % of control and 108 % of control | endpoint: mean survival time, dose: 100.0 mg/kg/injection, schedule: Q04DX002 (ip), vehicle: saline with Tween-80 96 % of control and 101 % of control | [6] 106 % of control | endpoint: mean survival time, dose: 200.0 mg/kg/injection, schedule: Q01DX001 (ip), vehicle: saline with Tween-80 102 % of control | [9] 89 % of control and 90 % of control | endpoint: mean survival time, dose: 200.0 mg/kg/injection, schedule: Q04DX002 (ip), vehicle: saline with Tween-80 93 % of control and 104 % of control | [7] 98 % of control | endpoint: mean survival time, dose: 400.0 mg/kg/injection, schedule: Q01DX001 (ip), vehicle: saline with Tween-80 107 % of control | [10] 97 % of control | endpoint: mean survival time, dose: 400.0 mg/kg/injection, schedule: Q04DX002 (ip), vehicle: saline with Tween-80 95 % of control and 101 % of control

CC1CCC(C)(C)C1=O (centres undefined)
inactive: endpoint: mean survival time, dose: 100.0 mg/kg/injection, schedule: Q01DX009 (ip), vehicle: saline 106 % of control | endpoint: mean survival time, dose: 200.0 mg/kg/injection, schedule: Q01DX009 (ip), vehicle: saline 96 % of control | endpoint: mean survival time, dose: 400.0 mg/kg/injection, schedule: Q01DX009 (ip), vehicle: saline 98 % of control

O=C(c1cccnc1)c1cc(-c2ccccn2)c(=O)n2ccccc12
inactive: endpoint: median survival time, dose: 25.0 mg/kg/injection, schedule: Q01DX009 (ip), vehicle: saline with Tween-80 100 % of control | endpoint: median survival time, dose: 50.0 mg/kg/injection, schedule: Q01DX009 (ip), vehicle: saline with Tween-80 108 % of control | endpoint: median survival time, dose: 100.0 mg/kg/injection, schedule: Q01DX009 (ip), vehicle: saline with Tween-80 91 % of control | endpoint: median survival time, dose: 200.0 mg/kg/injection, schedule: Q01DX009 (ip), vehicle: saline with Tween-80 95 % of control | endpoint: median survival time, dose: 400.0 mg/kg/injection, schedule: Q01DX009 (ip), vehicle: saline with Tween-80 91 % of control

O=S(=O)(O)SCNCNCCSCc1ccccc1
inactive: endpoint: mean survival time, dose: 12.5 mg/kg/injection, schedule: Q04DX002 (ip), vehicle: Klucel (hydroxypropylcellulose) (HPC) 91 % of control | endpoint: mean survival time, dose: 25.0 mg/kg/injection, schedule: Q04DX002 (ip), vehicle: Klucel (hydroxypropylcellulose) (HPC) 112 % of control | endpoint: mean survival time, dose: 50.0 mg/kg/injection, schedule: Q04DX002 (ip), vehicle: Klucel (hydroxypropylcellulose) (HPC) 91 % of control

CC1CN1P(=O)(Oc1cccc2ccccc12)N1CC1C (centres undefined)
inactive: endpoint: mean survival time, dose: 50.0 mg/kg/injection, schedule: Q01DX001 (ip), vehicle: saline 96 % of control | [3] 100 % of control | endpoint: mean survival time, dose: 178.0 mg/kg/injection, schedule: Q01DX001 (ip), vehicle: saline 101 % of control and 109 % of control | [4] 113 % of control | endpoint: mean survival time, dose: 267.0 mg/kg/injection, schedule: Q01DX001 (ip), vehicle: saline 101 % of control and 103 % of control | [5] 101 % of control and 104 % of control | endpoint: mean survival time, dose: 600.0 mg/kg/injection, schedule: Q01DX001 (ip), vehicle: saline 110 % of control and 116 % of control
